Where “and” joins values, the source holds several entries; their conditions need not be identical. Identical values can stand only once.
How the values were obtained:
[1] = tested on: DU145; assay: XTT viability assay; assay type: cell-based, human; conditions: DU145, 3 days
Description: (§1) Viability was assayed after 3 days (XTT, ATCC). IC50 concentrations are indicated (Table 3 above).

[2] = tested on: HCT116; assay: XTT viability assay; assay type: cell-based, human; conditions: HCT116, 3 days
Description: as §1

[3] = tested on: HT-29; assay: XTT viability assay; assay type: cell-based, human; conditions: HT-29, 3 days
Description: as §1

[4] = tested on: K562; assay: XTT viability assay; assay type: cell-based, human; conditions: K562, 3 days
Description: as §1

[5] = tested on: LNCaP; assay: XTT viability assay; assay type: cell-based, human; conditions: 3 days
Description: as §1

[6] = tested on: MCF-7; assay: XTT viability assay; assay type: cell-based, human; conditions: MCF-7, 3 days
Description: as §1

[7] = tested on: MDA-MB-231; assay: XTT viability assay; assay type: cell-based, human; conditions: for IC50 at 72 h: MDA-MB-231, 3 days
Description: as §1

[8] = tested on: PC3; assay: XTT viability assay; assay type: cell-based, human; conditions: PC3, 3 days
Description: as §1

[9] = tested on: SW480; assay: XTT viability assay; assay type: cell-based, human; conditions: SW480, 3 days
Description: as §1

[10] = tested on: T47D; assay: XTT viability assay; assay type: cell-based, human; conditions: 3 days
Description: as §1

[11] = tested on: U20S; assay: XTT viability assay; assay type: cell-based, human; conditions: 3 days
Description: as §1

[12] = tested on: MCF-7 mammospheres; assay: Mammosphere formation; assay type: cell-based, human; conditions: for Dose to block/inhibit mammosphere formation, fold lower than for monolayer growth: MCF-7
Description: Adherent cells were gently trypsinized, (0.05% trypsin/EDTA) washed twice in PBS and filtered through a […] cell sieve to obtain a single cell suspensions. Cells were diluted to a concentration of 10,000 cell/ml in serum-free phenol-red free MEBM (MEGM Bulletkit, Lonza) supplemented with 5 μg/ml bovine insulin, 20 ng/ml recombinant epidermal growth factor, 20 ng/ml basic fibroblast growth factor (Gibco), 1×B27 supplement, 0.5 μg/ml hydrocortisone (MEGM Bulletkit, Lonza). For MDA-MB-231 mammosphere cultures serum-free phenol red-free CnT-27 medium with growth additives (CellnTEC Advanced cell systems, Bern, Switzerland) was used as previously described. 0.1 ml was seeded per well of a Ultralow attachment 96 well plates. The following day the indicated doses of GR-24 (ppm) or vehicle alone (0.6% acetone f/c) were added. Media was replenished every 3-4 days. Self-renewal capacity of the mammospheres was determined by re-plating and producing further generations of mammospheres. Secondary mammospheres were cultivated by dissociation (trypsinization with gently vortexing) of 10-14 day old primary mammospheres. Single cell suspensions were obtained as described above.
Given the similar effects the other strigolactone analogs had on breast cancer cell line growth compared to GR-24, we anticipated that the strigolactone analogs would also have similar effects on MCF-7 primary mammosphere formation (FIG. 10): MCF-7 cells were seeded in MEBM media into low attachment, 96 well plates in duplicate at 3000 cells per well. The same day the indicated doses of strigolactone analogs were added. After 7 days representative images were taken. […] Like GR-24, the doses required to inhibit mammosphere formation are lower than that required to inhibit proliferation in monolayer cultures (5 fold lower; ST-362 and MEB-55, 3 fold lower; ST-357). To determine if the sensitivity to strigolactone analogs treatments was specific to mammosphere formation or whether it extended to the integrity and survival of mature mammospheres, MCF-7 mammospheres were grown in the absence of strigolactone analogs and after 7 days (or once mammospheres had reached a mean diameter of over […]), strigolactone analogs were added to the growth media (FIG. 10) at the indicated doses. MCF-7 cells were seeded in MEBM media into low attachment, 96 well plates in duplicate at 3000 cells per well and primary mammospheres left to grow for 7 days. At which time the indicated doses of strigolactone analogs were added to the media. FIG. 11A is a representative image of mammospheres treated with 5 ppm concentrations, showing dissociation after 2 days of exposure to strigolactone analogs. […] Following […] treatment, mammospheres were monitored visually after 24 and 48 hours. No changes were observed following 24 hours of strigolactone analogs treatment. […] At 5 ppm concentrations EG-5, EG-9C, ST-357, ST-362 and MEB-55 reduce mammosphere numbers from 86.7+6.8 (vehicle control) to 23+5, 38+6.2, 6+2, 8.3+3.5 and 9.3+1.5%, respectively. At 2.5 ppm concentrations, mammosphere numbers were reduced to 35+6.9 (EG-5), 52+12.3 (EG-9C), 22+8.5 (ST-357), 6+1.7 (ST-362) and 20.7+8.6 (MEB-55). […] XTT viability assays were also carried out on dissociated mammospheres. At concentrations of 5 ppm, EG-5, ST-362 and MEB-55 reduced viability to 3.7+0.5, 25.5+8.8 and 4.6+1.1% respectively.

[13] = tested on: U20S cells; assay: XTT viability after timed exposure and strigolactone removal; conditions: Homo sapiens
Description: At each time point the strigolactone analog was removed and the media was replaced with fresh growth media without strigolactone analog. […] In addition, viability of MDA-MB-231 cells was assessed after 24 hours by using an XTT assay (FIG. 9B). […] After 2, 4 or 24 hours the media was removed, cells were washed and media was replaced with growth media minus strigolactone analog.

[14] = tested on: Saccharomyces cerevisiae; assay: Yeast cell culture growth (OD); assay type: cell-based
Description: Saccharomyces cerevisiae and Candida oleophila yeast cells were grown overnight in a reach nutrient media at 28° C., at 150 rpm. Following, they were diluted to 0.4 OD in low nutrient media (Lily) and were divided into 96 wells. The cells were treated with GR-24 or ST-362, at the indicated concentrations. Cell culture growth was monitored every hour for 17 hours, at 28° C., with gentle shake before each OD read. OD was determined using fluorometer. Statistical differences between curves were analyzed using compareGrowthCurves function from the Statistical Modeling package, statmod (http://bioinf.wehi.edu.au/software/compareCurves/), significance was determined once P≤0.05.

Compound | IC50 at 72 h [1] [ppm] | IC50 at 72 h [2] [ppm] | IC50 at 72 h [3] [ppm] | IC50 at 72 h [4] [ppm] | IC50 at 72 h [5] [ppm] | IC50 at 72 h [6] [ppm] | IC50 at 72 h [7] [ppm] | IC50 at 72 h [8] | IC50 at 72 h [9] [ppm] | IC50 at 72 h [10] [ppm] | IC50 at 72 h [11] [ppm] | Mammosphere formation ([12]; 1 ppm, p<0.01) | Mammosphere growth ([12]; 2.5 ppm) | Mammosphere formation ([12]; 5 ppm and above) | Dose to block/inhibit mammosphere formation, fold lower than for monolayer growth [12] [fold] | viability at 10 ppm ([13]; 1 h) [%] | viability at 20 ppm ([13]; 1 h) [%] | viability at 10 ppm ([13]; 4 h) [%] | viability at 20 ppm ([13]; 4 h) [%] | also measured
CC1=CC(O/C=C2/C(=O)c3c(c4cc(-c5cccs5)ccc4n3C)C2C)OC1=O (centres unmarked) [ST-357, (2E)-1,4-dimethyl-2-((4-methyl-5-oxo-2,5-dihydrofuran-2-yloxy)methylene)-7-(thiophen-2-yl)-1,2-dihydrocyclopenta[b]indol-3(4H)-one] | >15 | >15 | >15 | >15 | 14.4 | >20 | 5.0 | 5.3 ppm and 5.4 ppm | >15 | >10 | 4.5 | significantly inhibit mammosphere formation | significant reduction in mammosphere growth | completely block mammosphere formation | 3 | 80 | 77 | 62 | 10 | –
CC1=CC(O/C=C2/C(=O)c3c(c4cc(-c5scc6c5OCCO6)ccc4n3C)C2C)OC1=O (centres unmarked) [ST-362, (2E)-2-[(2,5-dihydro-4-methyl-5-oxofuran-2-yloxy)methylene]-1,2-dihydro-7-(2,3-dihydrothieno[3,4-b][1,4]dioxin-7-yl)-1,4-dimethyl-cyclopenta[b]indole-3-(4H)-one] | 7.5 | 6.0 | 7.3 | 4.3 | 9.8 | 8.1 | 2.9 | >15 ppm | 2.9 | 8.6 | 2.8 | significantly inhibit mammosphere formation | block mammosphere growth | completely block mammosphere formation | 5 | – | – | – | – | IC20 concentration ([7]; MDA-231, XTT): 1.5 ppm; Concentrations giving a significant reduction in cell culture growth ([14]; apparent from the time of application): ≥ 0.1 µM
CC1=CC(O/C=C2\Cc3c(n(C)c4ccccc34)C2=O)OC1=O (racemic) [EG-5, (±) (2E)-4-methyl-2-(4-methyl-5-oxo-2,5-dihydrofuran-2-yloxymethylene)-1,4-dihydro-2H-cyclopenta[b]indol-3-one] | >15 | >15 | >15 | >15 | 13 | 17.5 | 7.5 | >15 ppm | >15 | 8.8 | 3.9 | – | – | completely block mammosphere formation | – | – | – | – | – | –
CC1=CC(O/C=C2\Cc3c(n(C)c4cc(-c5cccs5)ccc34)C2=O)OC1=O (racemic) [MEB-55, (±) 2E-4-methyl-2-(4-methyl-5-oxo-2,5-dihydrofuran-2-yloxymethylene)-6-thiophen-2-yl-1,4-dihydro-2H-cyclopenta[b]indol-3-one] | 12.8 | 12.8 | 8.2 | 8.1 | 12 | >12.8 | 3.9 | 8.8 ppm | 9.7 | 5.0 | 2.7 | significantly inhibit mammosphere formation | block mammosphere growth | completely block mammosphere formation | 5 | 52 | 40 | 0 | 0 | –
CC1=C[C@H](O/C=C2/C(=O)O[C@@H]3c4ccccc4C[C@H]23)OC1=O (relative stereo) [GR-24, (3aR*,8bS*,E)-3-(((R*)-4-methyl-5-oxo-2,5-dihydrofuran-2-yloxy)methylene)-3,3a,4,8b-tetrahydro-2H-indeno[1,2-b]furan-2-one] | – | – | – | – | – | – | – | – | – | – | – | severely attenuated | – | – | 5.7 | – | – | – | – | Mammosphere growth ([12]; 0.5 ppm, p<0.05): inhibited to a lesser degree; Cell culture growth ([14]; apparent 8 hours after application, 17 hours monitoring): significant reduction in cell culture growth
